According to PubChem BioAssay AID256 (DTP/NCI, 2004):
Toxic doses and inconclusive results are not listed. The calls were made as follows: active = survival T/C of 150% or more; inactive = T/C below 125% in these data.

Tested on: CD2F1 mice, L1210 leukemia ip, survival T/C
Assay: NCI In Vivo Anticancer Drug Screen. Data for tumor model L1210 Leukemia (intraperitoneal) in CD2F1 (CDF1) mice
Settings: higher = longer survival
How it was run: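 Vehicle-treated tumor-bearing mice served as controls (C) for compound-treated mice (T). Reported figure is T divided by C.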

[1] = endpoint: mean survival time, dose: 100.0 mg/kg/injection, schedule: Q04DX003 (ip), vehicle: saline with Tween-80
[2] = endpoint: mean survival time, dose: 200.0 mg/kg/injection, schedule: Q04DX003 (ip), vehicle: saline with Tween-80
[3] = endpoint: mean survival time, dose: 400.0 mg/kg/injection, schedule: Q04DX003 (ip), vehicle: saline with Tween-80
[4] = endpoint: mean survival time, dose: 100.0 mg/kg/injection, schedule: Q01DX009 (ip), vehicle: saline with Tween-80
[5] = endpoint: mean survival time, dose: 200.0 mg/kg/injection, schedule: Q01DX009 (ip), vehicle: saline with Tween-80
[6] = endpoint: mean survival time, dose: 400.0 mg/kg/injection, schedule: Q01DX009 (ip), vehicle: saline with Tween-80

Measured: T/C

CC1C=COC(C)CO1 (stereo not given) (tested in a mixture with another compound)
inactive: [1] 103 % of control | [2] 97 % of control | [3] 95 % of control

Cc1cc(Cc2cc(C)c(O)c(C)c2)cc(C)c1O
inactive: endpoint: mean survival time, dose: 50.0 mg/kg/injection, schedule: Q01DX009 (ip), vehicle: saline with Tween-80 94 % of control | [4] 100 % of control | [5] 97 % of control

[Cl][Pt+2][Cl].[NH-]N1CCN([NH-])CC1
inactive: endpoint: mean survival time, dose: 12.5 mg/kg/injection, schedule: Q04DX003 (ip), vehicle: saline with Tween-80 105 % of control | endpoint: mean survival time, dose: 25.0 mg/kg/injection, schedule: Q04DX003 (ip), vehicle: saline with Tween-80 90 % of control | endpoint: mean survival time, dose: 50.0 mg/kg/injection, schedule: Q04DX003 (ip), vehicle: saline with Tween-80 98 % of control | [1] 94 % of control | [2] 102 % of control

O=[N+]([O-])c1ccc(C(O)C(Br)[N+](=O)[O-])cc1 (stereo not given)
inactive: [4] 93 % of control | [1] 101 % of control | [5] 94 % of control | [2] 98 % of control | [6] 87 % of control | [3] 95 % of control

C=C(C)C1CCC2(C=O)CCC3(C)C(CCC4C5(C)CCC(OC6CCCCO6)C(C)(C)C5CCC43C)C12 (stereo not given)
inactive: endpoint: mean survival time, dose: 6.25 mg/kg/injection, schedule: Q04DX002 (ip), vehicle: saline with Tween-80 111 % of control | endpoint: mean survival time, dose: 12.5 mg/kg/injection, schedule: Q04DX002 (ip), vehicle: saline with Tween-80 100 % of control | endpoint: mean survival time, dose: 25.0 mg/kg/injection, schedule: Q04DX002 (ip), vehicle: saline with Tween-80 100 % of control

COc1cccc(C(=O)c2ccncc2)c1OC
inactive: endpoint: mean survival time, dose: 25.0 mg/kg/injection, schedule: Q01DX009 (ip), vehicle: water 91 % of control | endpoint: mean survival time, dose: 100.0 mg/kg/injection, schedule: Q01DX009 (ip), vehicle: water 95 % of control | endpoint: mean survival time, dose: 200.0 mg/kg/injection, schedule: Q01DX009 (ip), vehicle: water 90 % of control

CC(=O)OC1CCC2(C)C3CCC4(C)C(O)CCC4C3CC(O)C2(O)C1 (stereo not given)
inactive: [1] 90 % of control | [2] 87 % of control | [3] 91 % of control

CCOC(=O)C(=O)CC(=O)c1ccc(OC)cc1
inactive: [4] 98 % of control | [1] 100 % of control | [5] 96 % of control | [2] 95 % of control | [6] 101 % of control | [3] 95 % of control

CC1=C/C(O)CC(=O)Cc2nc(co2)C(=O)N2CCC=C2C(=O)OC(C(C)C)C(C)/C=C\C(=O)NC/C=C\1 (stereo not given)
inactive: endpoint: mean survival time, dose: 1.0 micrograms/kg/injection, schedule: Q01DX009 (ip), vehicle: Klucel (hydroxypropylcellulose) (HPC) 98 % of control | endpoint: mean survival time, dose: 2.0 micrograms/kg/injection, schedule: Q01DX009 (ip), vehicle: Klucel (hydroxypropylcellulose) (HPC) 101 % of control | endpoint: mean survival time, dose: 4.0 micrograms/kg/injection, schedule: Q01DX009 (ip), vehicle: Klucel (hydroxypropylcellulose) (HPC) 97 % of control | endpoint: mean survival time, dose: 8.0 micrograms/kg/injection, schedule: Q01DX009 (ip), vehicle: Klucel (hydroxypropylcellulose) (HPC) 92 % of control | endpoint: median survival time, dose: 25.0 mg/kg/injection, schedule: Q01DX009 (ip), vehicle: Klucel (hydroxypropylcellulose) (HPC) 98 % of control | endpoint: median survival time, dose: 50.0 mg/kg/injection, schedule: Q01DX009 (ip), vehicle: Klucel (hydroxypropylcellulose) (HPC) 106 % of control | endpoint: median survival time, dose: 100.0 mg/kg/injection, schedule: Q01DX009 (ip), vehicle: Klucel (hydroxypropylcellulose) (HPC) 105 % of control | endpoint: median survival time, dose: 200.0 mg/kg/injection, schedule: Q01DX009 (ip), vehicle: Klucel (hydroxypropylcellulose) (HPC) 104 % of control

CCOc1ccc2c(c1)C(C)=CC(C)(C)N2
inactive: [1] 95 % of control | [2] 104 % of control | [3] 91 % of control

C=C1CC[C@]2(C)CC[C@]3(C)C4=CC=C5C(=CC(=O)C(O)=C5C)[C@]4(C)CC[C@@]3(C)[C@@H]2C1
inactive: endpoint: mean survival time, dose: 0.12 mg/kg/injection, schedule: Q01DX009 (ip), vehicle: saline with Tween-80 103 % of control | endpoint: mean survival time, dose: 0.25 mg/kg/injection, schedule: Q01DX009 (ip), vehicle: saline with Tween-80 102 % of control | endpoint: mean survival time, dose: 0.5 mg/kg/injection, schedule: Q01DX009 (ip), vehicle: saline with Tween-80 108 % of control | endpoint: mean survival time, dose: 1.0 mg/kg/injection, schedule: Q01DX009 (ip), vehicle: saline with Tween-80 86 % of control

CCCCCCCCCCNC(C1=C(O)c2ccccc2C(=O)C1=O)c1ccccc1 (stereo not given)
inactive: endpoint: mean survival time, dose: 6.25 mg/kg/injection, schedule: Q01DX001 (ip), vehicle: saline with Tween-80 107 % of control | endpoint: mean survival time, dose: 12.5 mg/kg/injection, schedule: Q01DX001 (ip), vehicle: saline with Tween-80 100 % of control | endpoint: mean survival time, dose: 25.0 mg/kg/injection, schedule: Q01DX001 (ip), vehicle: saline with Tween-80 92 % of control
